Literature values, collected in US9701618B2, “Cannabidiol quinone derivatives” (VIVACELL BIOTECHNOLOGY ESPAÑA S.L., priority 2014, dated 2017).

Target: T1, PPARg (Homo sapiens, UniProt P37231)
T1 sequence (P37231 1-505): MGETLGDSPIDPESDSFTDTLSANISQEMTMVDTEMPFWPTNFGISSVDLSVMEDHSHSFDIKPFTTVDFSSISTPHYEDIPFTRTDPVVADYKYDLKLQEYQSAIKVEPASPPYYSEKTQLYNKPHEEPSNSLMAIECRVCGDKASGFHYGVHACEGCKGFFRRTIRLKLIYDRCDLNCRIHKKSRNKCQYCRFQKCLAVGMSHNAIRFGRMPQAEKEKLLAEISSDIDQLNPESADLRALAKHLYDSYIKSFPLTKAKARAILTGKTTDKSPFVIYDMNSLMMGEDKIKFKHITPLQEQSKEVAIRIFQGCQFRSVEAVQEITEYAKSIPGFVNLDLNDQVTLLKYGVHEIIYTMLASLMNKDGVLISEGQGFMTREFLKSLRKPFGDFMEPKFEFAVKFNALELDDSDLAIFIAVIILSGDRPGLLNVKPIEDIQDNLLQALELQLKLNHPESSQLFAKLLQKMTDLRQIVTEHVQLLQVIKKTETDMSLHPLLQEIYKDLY
Settings: cited from earlier work

Substance	affinity for PPARg compared to parent molecule CBD
4 methyl-CBD-quinone	higher affinity
4-formyl-methoxy-CBD-quinone	higher affinity
CBD-1,4-dihydroxyquinone	higher affinity
